Read-outs that look alike come from different tables or passages of the source. Marks after values point to notes of the source that are not given here.
Experiments:
Angiogenesis in CAM = experiment: Neovascularization on the CAM (Inhibition of Angiogenesis in CAM); format: in vivo, chicken; conditions: for inhibition in vivo at 0.03 mg: Gallus gallus
Procedure: In vivo neovascularization was examined by the method previously described by Auerbach et al. (J. Dev. Biol. 41:391-394 (1974)). Ten-day old chicken embryos were purchased from Spafas, Inc. (Preston, Conn.) and were incubated at 37° C. with 55% relative humidity. In the dark, with the aid of a candling lamp, a small hole was punctured in the shell concealing the air sac with a hypodermic needle. A second hole was punctured in the shell on the broadside of the egg directly over an […] portion of the embryonic membrane, as observed during candling. An artificial air sac was created beneath the second hole by applying gentle vacuum to the first hole using a small rubber squeeze bulb. The vacuum caused the chorioallantoic membrane (CAM) to separate from the shell. A window, approximately 1.0 cm^2, was cut in the shell over the dropped CAM with the use of a small crafts grinding wheel (Dremel, Division of Emerson Electric Company Racine, Wis.). The window allowed direct access to the underlying CAM. A pro-angiogenic agent was added to induce new blood vessel branches on the CAM of 10-day old embryos. […] Louis, Mo.) in a solution (95% ethanol and water). The disks were subsequently air dried under sterile conditions. The disks were then suspended in PBS (Phosphate Buffered Saline) and placed on growing CAMs. […] For inducing angiogenesis, sterile filter disks were saturated with bFGF (1 μg/ml) (Life Technologies, Gaithersburg, Md.) or other pro-angiogenesis factors and control disks were saturated with PBS without Calcium and Magnesium. Control disks were saturated with PBS without Calcium and Magnesium. Using sterile forceps one filter/CAM was placed from the window. The window was sealed with Highland brand transparent tape. After 24-48 hr, 10-25 ul of test agent was injected intravenously or added topically into the CAM membrane. Eight-Ten eggs/treatment group were used. CAM tissue directly beneath filter disk was harvested from embryos treated 48 hours prior with compound or control. Tissues were washed three times with PBS. Sections were placed in a 35-mm petri dish (Nalge Nunc, Rochester, N.Y.) and examined under a SV6 stereomicroscope (Karl Zeiss, Thornwood, N.Y.) at 50× magnification. […] Digital images of CAM sections from Petri dish were collected using a 3-CCD color video camera system (Toshiba America, New York, N.Y.). These images were analyzed using Image-Pro Plus software (Media Cybernetics, Silver Spring, Md.). The number of branch points in blood vessels within the circular region superimposed to the area of a filter disk was counted for each section. […] Tissues were washed three times with PBS. Sections were placed in a 35-mm Petri dish (Nalge Nunc; Rochester, N.Y.) and were examined under a SV6 stereomicroscope (Karl Zeiss; Thornwood, N.Y.) at 50× magnification. Digital images of CAM sections adjacent to filters were collected using a 3-CCD color video camera system (Toshiba America; New York, N.Y.) and analyzed with the Image-Pro Plus software (Media Cybernetics; Silver Spring, Md.). The number of vessel branch points contained in a circular region equal to the area of a filter disk was counted for each section. Percent inhibition data are expressed as the quotient of the experimental value minus the negative control value divided by the difference between the positive control value and the negative control value. One image was counted in each CAM preparation, and findings from eight CAM preparations were analyzed for each treatment condition. In addition, each experiment was performed three times. The resulting angiogenesis index is the mean ±SEM (Standard Error of Measurement) of new branch points in each set of treatment. Statistical analysis of blood vessel branching patterns are performed by 1-way analysis of variance (ANOVA) comparing experimental with corresponding control groups.

TNFα = experiment: Measurement of LPS Induced-TNFα in THP-1 Cells; format: cell-based, human
[1] = tested on: Doxorubicin resistant SaOS2 cells; experiment: Cancer cell viability (MTT) in the presence or absence of doxorubicin; format: cell-based, human; conditions: compound 50 ug/mL, 3 days
Lipid peroxidation = Lipid peroxidation inhibition (method of Ohkawa); format: biochemical; conditions: for Lipid Peroxidation Inhibition, % Inhibition: 10 uM
[2] = tested on: Human whole blood clot formation
Procedure: TEG: Human whole blood (±drugs) was added to the cylindrical cuvette (“cup”). […] The cup oscillates 4°45′ ( 1/12 radian) in either direction every 4.5 seconds, with a 1-second mid-cycle stationary period, resulting in a frequency of 0.1 Hz and a maximal shear rate of 0.1 per second. The pin was suspended by a torsion wire that acts as a torque transducer. […] The torque experienced by the pin (relative to the oscillation of the cup) was plotted as a function of time (Forsythe, S. A. M. S. K. M. S. (2000): “Comparative In Vitro Efficacy of Different Platelet Glycoprotein IIb/IIIa Antagonists on Platelet-Mediated Clot Strength Induced by Tissue Factor With Use of Thromboelastography.” Arteriosclerosis, Thrombosis, and Vascular Biology 20: 1162).
(Data represent mean ±SD, n=6 (blood form normal healthy volunteers), *P<0.01 as compared to control)

[3] = tested on: angiogenesis in the CAM model; experiment: Effect of TEMPOL-H on the anti-angiogenesis efficacy of ranibizumab in the CAM model; format: in vivo, chicken; conditions: for Mean % Inhibition +/− SEM, With TEMPOL-H (30 ug): P < 0.01; for Mean % Inhibition +/− SEM, Without TEMPOL-H: n = 6-8
Procedure: FIGS. 3A and 3B depict the effect of TEMPOL-H (OT-674) on the anti-angiogenesis efficacy of ranibizumab (LUCENTIS™) in the CAM model. FIG. 3A depicts 30 ug of TEMPOL-H and 1 ng of ranibizumab. FIG. […]
Ranibizumab (Genentech, South San Francisco, Calif.) is a monoclonal antibody fragment that binds to VEGF-A. It is anti-angiogenic and is approved to treat the wet type of age-related macular degeneration. The effect of the co-administration of TEMPOL-H (also referred to as OT-674) with Ranibizumab is depicted in Table 9. This effect is also depicted in FIGS. 3A and 3B.

[4] = Homo sapiens, THP-1, compound 10 uM, 5 ng/mL LPS, read-out: Mean Percent Inhibition of TNF-alpha using 5 ng/mL LPS
[5] = Homo sapiens, THP-1, read-out: TNFalpha IC50
[6] = TEG, human whole blood, Ranibizumab 1 ng/cup, Comp. 4 0 uM, *P<0.01 vs control

Row | Compound | IC50 (TNFα; [5]) [µM] | melting point | inhibition in vivo at 0.03 mg (Angiogenesis in CAM; 30 ug) [%] | Mean OD (×10^−3), MTT viability ([1]; Dox. 10^−6 M (+)) | Mean OD (×10^−3), MTT viability ([1]; absence of Dox. (−)) | further results
1 | Ranibizumab: a monoclonal antibody fragment that binds to VEGF-A | – | – | – | – | – | MA in comparison to native blood [2]: approximately six times larger MA; initiation of clot formation in comparison to native blood [2]: approximately two to three fold faster; Clot Strength - MA [2, 6]: 28.5 ± 3.4* mm; Time to Clot Initiation R [2, 6]: 6.9 ± 1.4* min; Mean % Inhibition +/− SEM, With TEMPOL-H (30 ug) ([3]; VEGF + Ranibizumab (1 ug) with TEMPOL-H (30 ug)): 54 +/− 9* %; Mean % Inhibition +/− SEM, Without TEMPOL-H ([3]; VEGF + Ranibizumab (1 ug)): 18 +/− 5%; Mean % Inhibition +/− SEM, With TEMPOL-H (30 ug) ([3]; VEGF + Ranibizumab (10 ug) with TEMPOL-H (30 ug)): 69 +/− 6* %; Mean % Inhibition +/− SEM, Without TEMPOL-H ([3]; VEGF + Ranibizumab (10 ug)): 33 +/− 6%; Mean % Inhibition +/− SEM, With TEMPOL-H (30 ug) ([3]; VEGF + Ranibizumab (100 ug) with TEMPOL-H (30 ug)): 83 +/− 4* %; Mean % Inhibition +/− SEM, Without TEMPOL-H ([3]; VEGF + Ranibizumab (100 ug)): 53 +/− 8%
2 | CC1(C)CC(Oc2nsnc2OC2CC(C)(C)N(O)C(C)(C)C2)CC(C)(C)N1O [Compound 14, 1-hydroxyl-4-(4-(2,2,6,6-tetramethylpiperidin-1-hydroxyl-4-yloxy)-1,2,5-thiadiazol-3-yloxy)-2,2,6,6-tetramethylpiperidine bis-hydrogen chloride] | – | – | 95.2 | – | – | inhibition at 10 µM (TNFα; Homo sapiens, THP-1, read-out: Mean Percent Inhibition of TNF-alpha using 5 ng/mL LPS): 63 ± 1%; IC50 (TNFα; Homo sapiens, THP-1, read-out: TNFalpha IC50 (uM)): 11.4 µM
3 | O=C1O[C@H]([C@@H](O)CO)C(O)=C1O [Vitamin C, reference compound] | – | – | – | – | – | Inhibition of Angiogenesis in CAM, % Inhibition (Angiogenesis in CAM; 300 ug): 15 ± 7%
4 | CC1(C)C=C(C(N)=O)C(C)(C)N1O [Compound 23, 2,5-dihydro-2,2,5,5-tetramethyl-1H-pyrrole-3-carboxamide-1-hydroxy] | – | – | – | 416.25 ×10^−3 | 1432.50 ×10^−3 | % inhibition of angiogenesis in CAM at 30 ug (Angiogenesis in CAM; 30 ug): 48.8; IC50 (TNFα; read-out: TNFalpha IC50): 87.4 µM
5 | COc1cc2c(cc1O)CC[C@@H]1[C@@H]2CC[C@]2(C)[C@@H](O)CC[C@@H]12 [2-methoxyestradiol, reference compound] | – | – | – | – | – | Inhibition of Angiogenesis in CAM, % Inhibition (Angiogenesis in CAM; 30 ug): 92.3%; Lipid Peroxidation Inhibition, % Inhibition (Lipid peroxidation): 92.3%
6 | Vitamin E [reference compound] | – | – | – | – | – | Inhibition of Angiogenesis in CAM, % Inhibition (Angiogenesis in CAM; 300 ug): 22 ± 6%

Second part, led by results:

Row | IC50 (TNFα; [5]) [µM] | melting point | Compound | inhibition in vivo at 0.03 mg (Angiogenesis in CAM; 30 ug) [%] | Mean OD (×10^−3), MTT viability ([1]; Dox. 10^−6 M (+)) | Mean OD (×10^−3), MTT viability ([1]; absence of Dox. (−)) | further results
7 | 16.4 | – | CC1(C)CC(Oc2nsnc2Cl)CC(C)(C)N1O [Compound 13, 4-(4-chloro-1,2,5-thiadiazol-3-yloxyl)-1-hydroxyl-2,2,6,6-tetramethylpiperidine hydrogen chloride] | 93.4 | – | – | inhibition at 10 µM (TNFα; [4]): 36%
8 | ≥ 100 | 184.6 °C (dec.) | CC1(C)COCC(C)(C)N1O.Cl [Compound 20, 3,3,5,5-1-hydroxy-tetramethylmorpholine hydrogen chloride] | 90.2 | 107.5 ×10^−3 | 515.50 ×10^−3 | Lipid Peroxidation Inhibition, % Inhibition (Lipid peroxidation): 90.2%
9 | – | 225.5 °C (dec.) | CC1(C)c2ccc(C(=O)O)cc2C(C)(C)N1O.Cl [Compound 15, 1,1,3,3-tetramethylisoindolin-2-hydroxyl-5-carboxylic acid hydrogen chloride] | 94.6 | – | – | inhibition at 10 µM (TNFα; [4]): 67 ± 7%; % Lipid Peroxidation inhibition (at 1 uM) (Lipid peroxidation; 1 uM): 88.0%; Lipid Peroxidation Inhibition, % Inhibition (Lipid peroxidation): 94.6%
10 | 21.7 | 201.8 °C (dec.) | CC1(C)CC(Cl)CC(C)(C)N1O.Cl [Compound 21, 4-chloro-1-hydroxy-2,2,6,6-tetramethylpiperidine hydrogen chloride] | 94.1 | 99.25 ×10^−3 | 492.75 ×10^−3 | –
11 | ≥ 100 | – | CC1(C)CC(NC(=O)C2CC2)C(C)(C)N1O.Cl (centres unmarked) [Compound 38, N-(1-hydroxy-2,2,5,5-tetramethylpyrrolidin-3-yl)cyclopropanecarboxamide hydrogen chloride] | – | 378.50 ×10^−3 | 1202.75 ×10^−3 | % inhibition of angiogenesis in CAM at 30 ug (Angiogenesis in CAM; 30 ug): 62.8
12 | 21.5 | 186 °C (dec.) | CC1(C)CC(C#N)CC(C)(C)N1O.Cl [Compound 12, 4-cyano-1-hydroxyl-2,2,6,6-tetramethylpiperidine hydrogen chloride] | 92.1 | 287.25 ×10^−3 | 539.25 ×10^−3 | inhibition at 10 µM (TNFα; [4]): 35%
